Where two headings read alike, the source gives them in different places.
Tests used:
P-gp (human MDR1) [1] = assay: in vitro; conditions: dog
[2] = Fraction unbound in 20-fold diluted brain homogenate, equilibrium dialysis; conditions: for fraction unbound at 5 h, 1 μM: Göttingen, minipig, pH 7.4; for Predicted fu (%) Brain (D = 20): calculated with Eq. 2 from fu measured in 100% matrices (ref 20), dilution factor 20
P-gp (human MDR1) [3] = assay: Equilibrium distribution study (in vitro Kp,brain / Kp,uu,brain) across MDCKII-MDR1 cells, BSA apical, brain homogenate basolateral, Uni-L and Bi-L; conditions: dog; for Kp at 29 h, 1 μM: brain homogenate/BSA ratio
[4] = biological target: T1, Bovine Serum Albumin (BSA) (Bos taurus, UniProt P02769); assay: Fraction unbound in 35 μM BSA, equilibrium dialysis; conditions: for fraction unbound at 5 h, 1 μM: bovine; for Predicted fu (%) BSA 35 μM (D = 20): calculated with Eq. 2 from fu measured in 100% matrices (ref 20), dilution factor 20
[5] = cited from earlier work
[6] = biological target: T1, Bovine Serum Albumin (BSA); assay: in vitro; conditions: isolated protein
P-gp (human MDR1) [7] = assay: in vitro; conditions: dog; remark: listed apart in the source
[8] = brain homogenate
[9] = biological target: T1, Bovine Serum Albumin (BSA); conditions: isolated protein
in vitro = conditions: Göttingen, minipig, brain homogenate, pH 7.4
[10] = biological target: T1, Bovine Serum Albumin (BSA); assay: Fraction unbound in 700 μM BSA in phosphate buffer; format: in vitro ADME; set-up: BSA (purity > 98%) was obtained from Beijing SeaskyBio Technology Co. Ltd; purchased Beijing SeaskyBio Technology Co. Ltd. BSAS (Lot 541); conditions: read-out: fu, 700 μM BSA
MDCKII-MDR1 cell line = test system: MDCKII-MDR1 cell line; set-up: method as in PMID 34756975, PMID 15236458; conditions: cited from earlier work
[11] = 20-fold diluted brain homogenate
[12] = MDCK-MDR1, pH 7.5, in vitro determined Kp,brain Bi-L, Bi-L (compound loaded both sides), 29 h
[13] = MDCK-MDR1, pH 7.5, in vitro determined Kp,brain Uni-L, Uni-L (compound loaded apically in BSA), 29 h
[14] = pH 7.5, Recovery Bi-L, mass balance Eq. 7, Bi-L, 29 h, % printed
[15] = pH 7.5, Recovery Uni-L, mass balance Eq. 6, Uni-L, 29 h, % printed
[16] = pH 7.5, assay recovery, equilibrium distribution experiment, setup (Uni-L/Bi-L) not given
[17] = MDCK-MDR1, pH 7.4, with an inhibitor present (name and concentration not stated)

T1 sequence (P02769 25-607): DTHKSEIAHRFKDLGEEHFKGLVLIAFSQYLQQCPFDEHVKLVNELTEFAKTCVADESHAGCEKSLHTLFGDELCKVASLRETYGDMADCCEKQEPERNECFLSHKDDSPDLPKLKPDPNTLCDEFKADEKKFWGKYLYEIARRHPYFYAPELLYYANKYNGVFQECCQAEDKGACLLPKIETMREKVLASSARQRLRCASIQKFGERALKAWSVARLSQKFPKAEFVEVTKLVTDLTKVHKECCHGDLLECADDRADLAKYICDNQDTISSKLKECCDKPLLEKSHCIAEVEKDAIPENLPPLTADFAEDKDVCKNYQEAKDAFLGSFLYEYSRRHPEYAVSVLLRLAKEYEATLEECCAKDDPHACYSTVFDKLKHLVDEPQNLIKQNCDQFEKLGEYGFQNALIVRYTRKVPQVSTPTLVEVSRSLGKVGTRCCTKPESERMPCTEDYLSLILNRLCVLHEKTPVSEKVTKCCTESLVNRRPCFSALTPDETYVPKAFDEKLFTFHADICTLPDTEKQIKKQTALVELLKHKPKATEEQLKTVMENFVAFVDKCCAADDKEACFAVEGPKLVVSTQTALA

Structure (SMILES)	Papp B→A at 60 min, 0.5 μM (P-gp (human MDR1) [1]; MDCK-MDR1, pH 7.4) [×10⁻⁶ cm/s]	efflux ratio at 60 min, 0.5 μM (P-gp (human MDR1) [1]; MDCK-MDR1, pH 7.4)	fraction unbound at 5 h, 1 μM [2, 11]	Predicted fu (%) Brain (D = 20) [2] [%]	Kp at 29 h, 1 μM (P-gp (human MDR1) [3]; [12])	Kp at 29 h, 1 μM (P-gp (human MDR1) [3]; [13])	recovery at 29 h, 1 μM (P-gp (human MDR1) [3]; [14]) [%]	recovery at 29 h, 1 μM (P-gp (human MDR1) [3]; [15]) [%]	fraction unbound at 5 h, 1 μM ([4]; 35 μM BSA)	Predicted fu (%) BSA 35 μM (D = 20) [4] [%]	Kp,uu,brain in vivo ([5]; Göttingen minipig)	also measured
O=C(c1ccc(F)cc1)C1CCN(CCn2c(=S)[nH]c3ccccc3c2=O)CC1 [Altanserin]	3.4 ± 0.3	1.1	0.229 ± 0.014	22.1	1.49	1.48	17	18	0.451 ± 0.035	26.8	0.85	recovery at 29 h, 1 μM (P-gp (human MDR1) [3]; [16]): ~20%
Cc1cc(=O)n(-c2ccccc2)n1C [Antipyrine, antipyrine]	48 ± 3	1.2	–	–	–	–	–	–	–	–	–	fraction unbound at 5 h, 1 μM [6]: > 1; Kp at 29 h, 1 μM (P-gp (human MDR1) [7]; MDCK-MDR1, pH 7.5, in vitro determined Kp,brain Bi-L): 1.2; Kp at 29 h, 1 μM (P-gp (human MDR1) [7]; MDCK-MDR1, pH 7.5, in vitro determined Kp,brain Uni-L): 1.2; recovery at 29 h, 1 μM (P-gp (human MDR1) [7]; pH 7.5, Recovery Bi-L): 77%; recovery at 29 h, 1 μM (P-gp (human MDR1) [7]; pH 7.5, Recovery Uni-L): 77%; Predicted fu (%) Brain (D = 20) [8]: > 100%; Predicted fu (%) BSA 35 μM (D = 20) [9]: 99.9%; fraction unbound at 5 h, 1 μM (in vitro): 0.843 ± 0.042; Kp,uu,brain in Vitro Uni-L (Det. fu) (MDCKII-MDR1 cells; dog, 29 h, 1 μM, pH 7.5): 1.05; Kp,uu,brain in Vitro Uni-L (Pre.fu) (MDCKII-MDR1 cells; dog, 29 h, 1 μM, pH 7.5): 1.24; Kp,uu,brain in vivo ([5]; minipig, in vivo): 0.80
O=C1CC2(CCCC2)CC(=O)N1CCCCN1CCN(c2ncccn2)CC1 [Buspirone, buspirone]	20 ± 3	–	–	–	–	–	71	76	–	–	–	–
CN/C(=N/CCSCc1nc[nH]c1C)NC#N [Cimetidine, cimetidine]	2.5 ± 0.2	–	0.938 ± 0.05	95.6	0.6	0.19	78	73	> 1	99.2	0.02	Papp A→B at 60 min, 0.5 μM (P-gp (human MDR1) [1]; MDCK-MDR1, pH 7.4): < 1 ×10⁻⁶ cm/s
CN(C)CCCC1(c2ccc(F)cc2)OCc2cc(C#N)ccc21 (stereo not drawn) [Citalopram, citalopram]	7.7 ± 0.3	1.7	0.513 ± 0.066	47.9	1.5	1.5	67	73	0.973 ± 0.027	96.0	0.90	–
CN(C)CCC=C1c2ccccc2COc2ccccc21 [Doxepin, doxepin]	2.2 ± 0.1	1.1	0.248 ± 0.05	33.0	2.2	2.2	54	59	0.922 ± 0.029	87.1	–	Papp A→B at 60 min, 0.5 μM (P-gp (human MDR1) [1]; MDCK-MDR1, pH 7.4): 2 ± 0.1 ×10⁻⁶ cm/s; recovery at 60 min, 0.5 μM (P-gp (human MDR1) [1]; MDCKII-MDR1 cell monolayers (transfected with human MDR1), pH 7.4): ~50%; recovery at 29 h, 1 μM (P-gp (human MDR1) [3]; [16]): ~50%
CNCCC(Oc1ccc(C(F)(F)F)cc1)c1ccccc1 (stereo not drawn) [Fluoxetine, fluoxetine]	–	–	0.052 ± 0.005	5.7	–	–	–	–	0.66 ± 0.032	70.6	–	–
NCC1(CC(=O)O)CCCCC1 [Gabapentin, gabapentin]	1.6 ± 0.2	0.5	–	93.4	0.9	0.11	86	85	–	99.8	0.13	fraction unbound at 5 h, 1 μM ([2]; brain homogenate): 0.946 ± 0.015; fraction unbound at 5 h, 1 μM ([4]; isolated protein): 0.984 ± 0.062
COc1ccc2c(c1)c(CC(=O)O)c(C)n2C(=O)c1ccc(Cl)cc1 [Indomethacin, indomethacin]	2.7 ± 0.3	–	0.358 ± 0.08	42.8	0.78	0.88	69	73	–	–	0.13	Kp uu at 29 h, 1 μM (P-gp (human MDR1) [3]; MDCK-MDR1, pH 7.5): ≥ 1
CCN(CC)CCNC(=O)c1cc(Cl)c(N)cc1OC [Metoclopramide, metoclopramide]	49 ± 3	2	0.878 ± 0.038	90.7	0.96	1	66	66	> 1	98.8	–	fraction unbound at 5 h, 1 μM [10]: 0.904
Clc1ccc2c(c1)N=C(N1CCNCC1)c1ccccc1N2 [N-desmethylclozapine]	4.4 ± 0.3	2.1	0.131 ± 0.006	13.9	4.2	4.2	53	62	0.892 ± 0.029	82.1	0.71	Papp A→B at 60 min, 0.5 μM (P-gp (human MDR1) [1]; [17]): 3.6 ×10⁻⁶ cm/s; Papp B→A at 60 min, 0.5 μM (P-gp (human MDR1) [1]; [17]): 2.9 ×10⁻⁶ cm/s; recovery at 29 h, 1 μM (P-gp (human MDR1) [3]; [16]): ~50%; classification of brain penetration in vivo ([5]; Göttingen minipig Kp,uu,brain): unrestricted (unrestricted brain penetration with Kp,uu,brain > 0.7)
CC(C)NCC(O)COc1cccc2ccccc12 (stereo not drawn) [Propranolol, propranolol]	3.7 ± 0.1	0.8	0.35 ± 0.012	37.4	1.9	2.2	21	25	0.897 ± 0.018	86.8	0.76	recovery at 29 h, 1 μM (P-gp (human MDR1) [3]; [16]): ~20%
COc1ccccc1N1CCN(CCN(C(=O)C2CCCCC2)c2ccccn2)CC1 [Way-100635]	–	–	–	71.8	–	–	–	–	–	87.1	0.40	Determined fu (%) Brain (D = 20) ([2]; 20-fold diluted brain homogenate, 1 μM, 5 h, 37 ℃, Eq. 1, mean ± SD N=3): 74.8 ± 8.0%; Kp,uu,brain in Vitro Uni-L (Det. fu) (MDCKII-MDR1 cells): 1.09; Kp,uu,brain in Vitro Uni-L (Pre.fu) (MDCKII-MDR1 cells): 0.96; assay recovery, equilibrium distribution experiment (MDCKII-MDR1 cells): around 50%; in vitro Kp,uu,brain (MDCKII-MDR1 cells; dog, MDCK-MDR1): ~ 1; Determined fu (%) BSA 35 μM (D = 20) ([4]; 35 μM BSA, 1 μM, 5 h, 37 ℃, Eq. 1, mean ± SD N=3): 80.2 ± 0.9%
OC[C@@H](O)[C@@H](O)[C@H](O)[C@H](O)CO [mannitol]	–	–	–	–	–	–	–	–	–	–	–	mannitol flux (MDCKII-MDR1 cell line): 1–7 10^–7 cm/s
